Test results as given in ChEMBL document CHEMBL1201861, “Genomics of Drug Sensitity in Cancer screening data, Wellcome Trust Sanger Institute”.

Key:
Type in all cases: functional, cell-based
RPMI-6666 = experiment: cells; details: Homo sapiens
Description: SANGER: Inhibition of human RPMI-6666 cell growth in a cell viability assay.

D-247MG = experiment: cells; details: Homo sapiens
Description: SANGER: Inhibition of human D-247MG cell growth in a cell viability assay.

IM-9 = experiment: SANGER: Inhibition of human IM-9 cell growth in a cell viability assay.
NCI-H719 = experiment: cells; details: Homo sapiens
Description: SANGER: Inhibition of human NCI-H719 cell growth in a cell viability assay.

SCLC-21H = experiment: cells; details: Homo sapiens
Description: SANGER: Inhibition of human SCLC-21H cell growth in a cell viability assay.

NCI-H1882 = experiment: cells; details: Homo sapiens
Description: SANGER: Inhibition of human NCI-H1882 cell growth in a cell viability assay.

LC4-1 = experiment: cells; details: Homo sapiens
Description: SANGER: Inhibition of human LC4-1 cell growth in a cell viability assay.

HCC2157 = experiment: cells; details: Homo sapiens
Description: SANGER: Inhibition of human HCC2157 cell growth in a cell viability assay.

SR = experiment: cells; details: Homo sapiens
Description: SANGER: Inhibition of human SR cell growth in a cell viability assay.

WSU-NHL = experiment: cells; details: Homo sapiens
Description: SANGER: Inhibition of human WSU-NHL cell growth in a cell viability assay.

CaR-1 = experiment: cells; details: Homo sapiens
Description: SANGER: Inhibition of human CaR-1 cell growth in a cell viability assay.

HT-1376 = experiment: cells; details: Homo sapiens
Description: SANGER: Inhibition of human HT-1376 cell growth in a cell viability assay.

SN12C = experiment: cells; details: Homo sapiens
Description: SANGER: Inhibition of human SN12C cell growth in a cell viability assay.

SK-N-AS = experiment: cells; details: Homo sapiens
Description: SANGER: Inhibition of human SK-N-AS cell growth in a cell viability assay.

HSC-2 = experiment: cells; details: Homo sapiens
Description: SANGER: Inhibition of human HSC-2 cell growth in a cell viability assay.

NCI-H630 = experiment: cells; details: Homo sapiens
Description: SANGER: Inhibition of human NCI-H630 cell growth in a cell viability assay.

HSC-3 = experiment: cells; details: Homo sapiens
Description: SANGER: Inhibition of human HSC-3 cell growth in a cell viability assay.

SW1990 = experiment: cells; details: Homo sapiens
Description: SANGER: Inhibition of human SW1990 cell growth in a cell viability assay.

BT-20 = experiment: cells; details: Homo sapiens
Description: SANGER: Inhibition of human BT-20 cell growth in a cell viability assay.

SK-MEL-30 = experiment: cells; details: Homo sapiens
Description: SANGER: Inhibition of human SK-MEL-30 cell growth in a cell viability assay.

BFTC-905 = experiment: cells; details: Homo sapiens
Description: SANGER: Inhibition of human BFTC-905 cell growth in a cell viability assay.

SCC-4 = experiment: cells; details: Homo sapiens
Description: SANGER: Inhibition of human SCC-4 cell growth in a cell viability assay.

NB12 = experiment: cells; details: Homo sapiens
Description: SANGER: Inhibition of human NB12 cell growth in a cell viability assay.

MDA-MB-415 = experiment: cells; details: Homo sapiens
SW948 = experiment: cells; details: Homo sapiens
Description: SANGER: Inhibition of human SW948 cell growth in a cell viability assay.

SK-OV-3 = experiment: cells; details: Homo sapiens
Description: SANGER: Inhibition of human SK-OV-3 cell growth in a cell viability assay.

NCI-H1793 = experiment: cells; details: Homo sapiens
Description: SANGER: Inhibition of human NCI-H1793 cell growth in a cell viability assay.

5637 = experiment: cells; details: Homo sapiens
Description: SANGER: Inhibition of human 5637 cell growth in a cell viability assay.

HO-1-N-1 = experiment: cells; details: Homo sapiens
Description: SANGER: Inhibition of human HO-1-N-1 cell growth in a cell viability assay.

23132-87 = experiment: cells; details: Homo sapiens
Description: SANGER: Inhibition of human 23132-87 cell growth in a cell viability assay.

SW1783 = experiment: cells; details: Homo sapiens
Description: SANGER: Inhibition of human SW1783 cell growth in a cell viability assay.

FaDu = experiment: cells; details: Homo sapiens
Description: SANGER: Inhibition of human FADU cell growth in a cell viability assay.

SW13 = experiment: cells; details: Homo sapiens
Description: SANGER: Inhibition of human SW13 cell growth in a cell viability assay.

8305C = experiment: cells; details: Homo sapiens
Description: SANGER: Inhibition of human 8305C cell growth in a cell viability assay.

NCI-H28 = experiment: cells; details: Homo sapiens
Description: SANGER: Inhibition of human NCI-H28 cell growth in a cell viability assay.

SiHa = experiment: cells; details: Homo sapiens
Description: SANGER: Inhibition of human SiHa cell growth in a cell viability assay.

ACHN = experiment: cells; details: Homo sapiens
Description: SANGER: Inhibition of human ACHN cell growth in a cell viability assay.

NCI-H358 = experiment: cells; details: Homo sapiens
Description: SANGER: Inhibition of human NCI-H358 cell growth in a cell viability assay.

Capan-2 = experiment: cells; details: Homo sapiens
Description: SANGER: Inhibition of human Capan-2 cell growth in a cell viability assay.

DoTc2-4510 = experiment: cells; details: Homo sapiens
VMRC-RCZ = experiment: cells; details: Homo sapiens
Description: SANGER: Inhibition of human VMRC-RCZ cell growth in a cell viability assay.

639-V = experiment: cells; details: Homo sapiens
Description: SANGER: Inhibition of human 639-V cell growth in a cell viability assay.

COLO-680N = experiment: cells; details: Homo sapiens
Description: SANGER: Inhibition of human COLO-680N cell growth in a cell viability assay.

U-118-MG = experiment: cells; details: Homo sapiens
Description: SANGER: Inhibition of human U-118-MG cell growth in a cell viability assay.

SCC-9 = experiment: cells; details: Homo sapiens
Description: SANGER: Inhibition of human SCC-9 cell growth in a cell viability assay.

Calu-3 = experiment: cells; details: Homo sapiens
Description: SANGER: Inhibition of human Calu-3 cell growth in a cell viability assay.

UACC-893 = experiment: cells; details: Homo sapiens
Description: SANGER: Inhibition of human UACC-893 cell growth in a cell viability assay.

UMC-11 = experiment: cells; details: Homo sapiens
Description: SANGER: Inhibition of human UMC-11 cell growth in a cell viability assay.

CAPAN-1 = experiment: cells; details: Homo sapiens
Description: SANGER: Inhibition of human CAPAN-1 cell growth in a cell viability assay.

NY = experiment: cells; details: Homo sapiens
Description: SANGER: Inhibition of human NY cell growth in a cell viability assay.

NCI-H2170 = experiment: cells; details: Homo sapiens
Description: SANGER: Inhibition of human NCI-H2170 cell growth in a cell viability assay.

SW1088 = experiment: cells; details: Homo sapiens
Description: SANGER: Inhibition of human SW1088 cell growth in a cell viability assay.

NCI-H596 = experiment: cells; details: Homo sapiens
Description: SANGER: Inhibition of human NCI-H596 cell growth in a cell viability assay.

769-P = experiment: cells; details: Homo sapiens
Description: SANGER: Inhibition of human 769-P cell growth in a cell viability assay.

NCI-H1623 = experiment: cells; details: Homo sapiens
Description: SANGER: Inhibition of human NCI-H1623 cell growth in a cell viability assay.

D-392MG = experiment: cells; details: Homo sapiens
HCT-15 = experiment: cells; details: Homo sapiens
Description: SANGER: Inhibition of human HCT-15 cell growth in a cell viability assay.

MDA-MB-361 = experiment: cells; details: Homo sapiens
A2058 = experiment: cells; details: Homo sapiens
Description: SANGER: Inhibition of human A2058 cell growth in a cell viability assay.

MFE-280 = experiment: cells; details: Homo sapiens
Description: SANGER: Inhibition of human MFE-280 cell growth in a cell viability assay.

BEN = experiment: cells; details: Homo sapiens
Description: SANGER: Inhibition of human BEN cell growth in a cell viability assay.

HCC1569 = experiment: cells; details: Homo sapiens
Description: SANGER: Inhibition of human HCC1569 cell growth in a cell viability assay.

G-401 = experiment: cells; details: Homo sapiens
Description: SANGER: Inhibition of human G-401 cell growth in a cell viability assay.

## CCNc1cc(N[C@H]2CC[C@@H](O)CC2)nc(Nc2ccc3c(ccn3Cc3ccccc3)c2)n1
RPMI-6666
  IC50: > 5.12 µM
D-247MG
  IC50: > 5.12 µM
IM-9
  IC50: > 5.12 µM
NCI-H719
  IC50: > 5.12 µM
SCLC-21H
  IC50: > 5.12 µM
NCI-H1882
  IC50: > 5.12 µM
LC4-1
  IC50: > 5.12 µM
HCC2157
  IC50: > 5.12 µM
SR
  IC50: > 5.12 µM
WSU-NHL
  IC50: > 5.12 µM

## COc1cc(C)c(Sc2cnc(NC(=O)c3ccc(CNC(C)C(C)(C)C)cc3)s2)cc1C(=O)N1CCN(C(C)=O)CC1 (centres undefined)
RPMI-6666
  IC50: > 10.2 µM
D-247MG
  IC50: > 10.2 µM
IM-9
  IC50: > 10.2 µM
NCI-H719
  IC50: > 10.2 µM
SCLC-21H
  IC50: > 10.2 µM
NCI-H1882
  IC50: > 10.2 µM
LC4-1
  IC50: > 10.2 µM
HCC2157
  IC50: > 10.2 µM
SR
  IC50: > 10.2 µM
WSU-NHL
  IC50: > 10.2 µM

## NC(=O)c1ncn([C@@H]2O[C@H](COP(=O)(O)O)[C@@H](O)[C@H]2O)c1N
CaR-1
  IC50: 1650 µM
HT-1376
  IC50: > 2000 µM
SN12C
  IC50: > 2000 µM
SK-N-AS
  IC50: > 2000 µM
HSC-2
  IC50: 846 µM
NCI-H630
  IC50: > 2000 µM
HSC-3
  IC50: 259 µM
SW1990
  IC50: 1120 µM
BT-20
  IC50: 1400 µM
SK-MEL-30
  IC50: > 2000 µM
BFTC-905
  IC50: > 2000 µM
SCC-4
  IC50: 1230 µM
NB12
  IC50: > 2000 µM
MDA-MB-415
  IC50: 655 µM
SW948
  IC50: > 2000 µM
SK-OV-3
  IC50: > 2000 µM
NCI-H1793
  IC50: > 2000 µM
5637
  IC50: > 2000 µM
HO-1-N-1
  IC50: 793 µM
23132-87
  IC50: > 2000 µM
SW1783
  IC50: > 2000 µM
FaDu
  IC50: 1060 µM
SW13
  IC50: > 2000 µM
8305C
  IC50: > 2000 µM
NCI-H28
  IC50: 1040 µM
SiHa
  IC50: > 2000 µM
ACHN
  IC50: 1210 µM
NCI-H358
  IC50: > 2000 µM
Capan-2
  IC50: > 2000 µM
D-247MG
  IC50: > 2000 µM
DoTc2-4510
  IC50: 1250 µM
VMRC-RCZ
  IC50: > 2000 µM
639-V
  IC50: > 2000 µM
COLO-680N
  IC50: > 2000 µM
U-118-MG
  IC50: 1430 µM
SCC-9
  IC50: > 2000 µM
Calu-3
  IC50: 1920 µM
UACC-893
  IC50: > 2000 µM
UMC-11
  IC50: > 2000 µM
CAPAN-1
  IC50: > 2000 µM
NY
  IC50: 495 µM
NCI-H2170
  IC50: > 2000 µM
SW1088
  IC50: > 2000 µM
NCI-H596
  IC50: > 2000 µM
769-P
  IC50: > 2000 µM
NCI-H1623
  IC50: > 2000 µM
D-392MG
  IC50: > 2000 µM
HCT-15
  IC50: 1890 µM
MDA-MB-361
  IC50: 1310 µM
A2058
  IC50: > 2000 µM
MFE-280
  IC50: > 2000 µM
BEN
  IC50: > 2000 µM
HCC1569
  IC50: 994 µM
G-401
  IC50: > 2000 µM

## Cc1n[nH]c2ccc(-c3cncc(OC[C@@H](N)Cc4c[nH]c5ccccc45)c3)cc12 [A-443654]
RPMI-6666
  IC50: 0.152 µM
D-247MG
  IC50: 0.974 µM
IM-9
  IC50: > 1.02 µM
NCI-H719
  IC50: > 1.02 µM
SCLC-21H
  IC50: > 1.02 µM
NCI-H1882
  IC50: 0.428 µM
LC4-1
  IC50: 0.217 µM
HCC2157
  IC50: 0.561 µM
SR
  IC50: 0.184 µM
WSU-NHL
  IC50: > 1.02 µM
